Assays:
HDAC1 = HDAC1 (Homo sapiens, UniProt Q13547); test: In vitro enzymatic assay with purified HDACs; type: biochemical
Description: (§1) To extend these observations in other cell settings, we next made use of a novel HDAC6 proteolysis targeting chimera (PROTAC) degrader, XY-07-35 ([19]). Treatment of cells with XY-07-35 leads to recruitment of the E3 ligase cereblon (CRBN) to HDAC6, ubiquitination, and subsequent proteasomal degradation of HDAC6 (Fig. 3A).
(§2) Figure 3 Effect of […] mediated HDAC6 degradation on NLRP3 inflammasome activation in PBMCs.A, schematic of the mode of action of an HDAC6 degrader. The PROTAC engages both HDAC6 and the E3 ligase cereblon (CRBN), which then leads to ubiquitination and degradation of HDAC6. B, chemical structure of the HDAC6 degrader XY-07-35 and of the negative control XY-07-191 which no longer recruits CRBN. C, in vitro enzymatic assay of compound XY-07-35 on the activity of different HDACs. IC50 for each enzyme is shown. D, XY-07-35 mediated HDAC6 degradation in PBMCs. PBMCs (without or with LPS priming for 4 h) were treated with the indicated compounds and HDAC6 levels were detected by immunoblotting with an anti-HDAC6 antibody. Detection of actin was used as a control for loading. CGP, CGP084892 (Caspase-1 inhibitor); AFN700 is an inhibitor of the NF-kB pathway (IKK inhibitor). E, HDAC6 degradation impact on IL-1β release in PBMCs following MSU 200 μg/ml (5 h), nigericin 2 μM (2 h) or ATP 3 mM (0.5 h) treatment. Cells were first primed with 0.2 ng/ml LPS for 4 h at 37 °C, then treated with MSU, nigericin, and ATP as indicated. The graphs below show the results of three independent experiments using the inducers as indicated. NP3-948 is an inhibitor of the NLRP3 inflammasome. TEXT PRINTED IN THE PICTURE: (C) XY-07-035: Compound IC50 (μM): 1.04 (Target: HDAC1); Compound IC50 (μM): 2.47 (Target: HDAC2); Compound IC50 (μM): 1.44 (Target: HDAC3); Compound IC50 (μM): 5.75 (Target: HDAC5); Compound IC50 (μM): 0.0485 (Target: HDAC6); Compound IC50 (μM): 0.621 (Target: HDAC8) DOUBTS OF THE COPYIST ABOUT THIS PICTURE: XY-07-035, HDAC4, HDAC7 and HDAC9: the table prints only dashes (--), no value, so these rows are left out

HDAC2 = HDAC2 (Homo sapiens, UniProt Q92769); test: In vitro enzymatic assay with purified HDACs; type: biochemical
Description: as §1, §2

other HDACs = test: In vitro enzymatic assay with purified HDACs; type: biochemical; settings: other HDACs (than HDAC6 and HDAC8)
Description: as §1, §2

U937 cells = test: CTG cell viability assay; type: cell-based, human; settings: U937, broad concentration range, 70 h
Protocol: U937, Jurkat, and HEK293T cells were plated with a density of 10^5 cells/ml, with 50 μl/well in a white 384 well plate (Corning #3570). Two hours after plating, XY-07-035 was dispensed to each well using HPd300e and incubated at 37 °C for 70 h. CellTiter-Glo (CTG) Luminescent Cell Viability Assay (Promega #G7572) was then used to measure cell viability. Aliquoted frozen CTG reagent and cell plates were warmed to room temperature prior to loading. After the plates were cooled to room temperature, the CTG reagent was loaded 15 μl/well with an electronic multichannel pipette. […] The luminescence signal was read over ten cycles for each data point on a PHERAstar FS microplate reader (BMG Labtech). The Relative abundance was calculated as the sum of the averages of duplicate individual 12-point dose-response data points.
Supplementary file mmc1.pdf: Supporting Figure S1 BMDM cells were primed by LPS (1 μg/ml) for 4 hrs and then challenged with 20 μM nigericin. 50 μl supernatant was collected every 15 min (up to 90 min) and mIL-1β level was determined by HTRF assay. […] DARPin F10 was detected by anti-HA antibody. […] Cells were treated with different concentrations of the degrader, and cell viability determined by CTG assay was normalized to the non-treated group. […] Supporting Figure S4: Cell viability was measured by resazurin assay, and fluorescence intensity was a representative of the viability.

HDAC2, sequence (Q92769 whole entry, species assumed): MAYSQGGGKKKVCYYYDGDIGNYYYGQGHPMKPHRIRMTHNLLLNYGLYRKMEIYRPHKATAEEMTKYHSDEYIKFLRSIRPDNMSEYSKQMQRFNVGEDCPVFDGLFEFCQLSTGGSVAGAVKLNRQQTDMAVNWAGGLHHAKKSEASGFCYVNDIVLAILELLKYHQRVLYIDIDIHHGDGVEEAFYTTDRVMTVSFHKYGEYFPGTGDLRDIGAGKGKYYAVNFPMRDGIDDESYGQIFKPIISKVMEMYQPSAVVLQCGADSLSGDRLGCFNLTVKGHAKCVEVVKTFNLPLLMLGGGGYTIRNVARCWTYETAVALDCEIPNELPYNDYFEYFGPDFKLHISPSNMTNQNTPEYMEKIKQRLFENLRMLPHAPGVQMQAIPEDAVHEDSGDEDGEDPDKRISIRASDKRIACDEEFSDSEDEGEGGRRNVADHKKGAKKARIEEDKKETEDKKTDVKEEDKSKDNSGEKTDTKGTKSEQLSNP
HDAC1, sequence (Q13547 whole entry, species assumed): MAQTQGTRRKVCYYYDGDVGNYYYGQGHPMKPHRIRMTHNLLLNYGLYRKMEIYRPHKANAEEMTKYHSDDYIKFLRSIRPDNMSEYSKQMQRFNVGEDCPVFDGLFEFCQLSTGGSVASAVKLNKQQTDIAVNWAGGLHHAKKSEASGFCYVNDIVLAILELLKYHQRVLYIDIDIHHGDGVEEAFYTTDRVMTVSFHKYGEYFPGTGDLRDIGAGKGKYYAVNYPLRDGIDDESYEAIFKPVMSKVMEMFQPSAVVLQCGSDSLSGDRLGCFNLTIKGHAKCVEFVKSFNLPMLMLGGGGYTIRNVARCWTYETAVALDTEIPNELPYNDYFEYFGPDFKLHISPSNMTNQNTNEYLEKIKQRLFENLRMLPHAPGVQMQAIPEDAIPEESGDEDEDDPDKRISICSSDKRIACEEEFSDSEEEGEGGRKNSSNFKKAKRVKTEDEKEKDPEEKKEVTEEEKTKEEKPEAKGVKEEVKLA

`CN(C(=O)CCCNc1cccc2c1C(=O)N(C1CCC(=O)NC1=O)C2=O)c1ccc(NC(=O)CCCCCCC(=O)NO)cc1` (stereo not shown) [XY-07-35] was tested. Which IC50 (HDAC1) did it give?
Its IC50 is 1040 nM.

And the IC50 (HDAC2)?
Its IC50 is 2470 nM.

And the IC50 (other HDACs)?
Its IC50 is 1040 to 5750 nM.

What about the cellular toxicity (U937 cells) of the same molecule?
Its cellular toxicity is “does not show cellular toxicity”.

Reference: PMC10850954, “HDAC6/aggresome processing pathway importance for inflammasome formation is context-dependent” (The Journal of Biological Chemistry, 2024)
